Measurements: patent US10179125B2, “Substituted pyridines as bromodomain inhibitors” (Zenith Epigenetics Ltd., priority 2014, dated 2019)

What was measured:
cMYC = assay: Inhibition of cMYC expression in MV4-11 cells (real-time PCR); format: cell-based, Human; details: Homo sapiens, 3 h, cMYC mRNA, read-out: c-myc activity
Method in brief: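 MV4-11 cells (2.5×10^4/well) treated 3 h at 37° C with compound in IMDM/10% FBS, 0.1% DMSO vehicle, in triplicate. cMYC mRNA quantified by one-step TaqMan RT-qPCR, Ct normalised to cyclophilin; fold expression relative to DMSO control.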

[1] = biological target: T1, Brd4 bromodomain 1 (BRD4(1)) (Homo sapiens, UniProt O60885); assay: Inhibition of tetra-acetylated histone H4 binding to BET bromodomain (HTRF/FRET); details: His-tagged bromodomain 200 nM, biotinylated tetra-acetylated histone H4 peptide, 2 h room temperature
T1 construct: made in house; host or cells: E. coli BL21(DE3)
Method in brief: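 His-tagged BRD4(1) (200 nM, E. coli-expressed) incubated with biotinylated tetra-acetylated histone H4 peptide (25-50 nM) plus Eu-cryptate streptavidin and XL665 anti-His, with compound (0.2% DMSO), 2 h at room temperature in HEPES pH 7.4 buffer. HTRF 665/620 nm ratio decrease gives IC50.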

Human AML MV-4-11 cells = assay: Inhibition of cell proliferation in MV4-11 cells (CellTiter Aqueous One); format: cell-based; details: Homo sapiens, 72 h
Method in brief: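 MV4-11 cells (5×10^4/well) in IMDM + 10% FBS were treated with graded compound or 0.1% DMSO for 72 h at 37 °C, 5% CO2, in triplicate. CellTiter Aqueous One was added for 3–4 h and absorbance read at 490 nm. Background-corrected signal was expressed relative to DMSO and used to calculate IC50.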

hIL-6 = assay: Inhibition of hIL-6 mRNA transcription in LPS-stimulated U937 cells; format: cell-based, Human; details: Homo sapiens, U-937, PMA-differentiated U937 cells, 1 h pretreatment, LPS 3 h, read-out: IL-6 activity
Method in brief: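 U937 cells differentiated 3 days with 60 ng/mL PMA, pretreated 1 h with compound (0.1% DMSO), then stimulated with 1 ug/mL E. coli LPS for 3 h at 37 °C. IL-6 mRNA measured by one-step TaqMan qRT-PCR, normalized to cyclophilin; fold expression relative to control, triplicate wells.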

hApoA-I = assay: Up-regulation of hApoA-1 mRNA transcription in Huh7 cells; format: cell-based; details: EC170, Huh7 cells, 48 h
Procedure: In this example, hApoA-I mRNA in tissue culture cells was quantitated to measure the transcriptional up-regulation of hApoA-I when treated with a compound of the present disclosure.
Huh7 cells (2.5×10^5 per well) were plated in a 96-well plate using 100 μL DMEM per well, (Gibco DMEM supplemented with penicillin/streptomycin and 10% FBS), 72 h before the addition of the compound. The cells are treated with increasing concentrations of the compound or […] (0.1%), and incubated at 37° C., 5% CO2 for 48 h. Spent media was removed from the Huh-7 cells and placed on ice for immediate use with the “LDH cytotoxicity assay Kit II” from Abcam. The cells remaining in the plate were rinsed with 100 μL PBS. Cells were harvested using the mRNA Catcher PLUS kit according to manufacturer's instructions. The eluted mRNA was then used in a one-step quantitative real-time PCR reaction, using components of the RNA UltraSense™ One-Step Kit (Life Technologies) together with Applied Biosystems TaqMan® primer-probes for hApoA-I and Cyclophilin. Real-time PCR plates were run on a ViiA™7 real time PCR machine (Applied Biosystems), data was analyzed, normalizing the Ct values for hApoA-1 to an internal control, prior to determining the fold induction of each unknown sample, relative to the control.

hIL-17 = assay: Inhibition of hIL-17 mRNA transcription in OKT3-stimulated peripheral blood mononuclear cells; format: cell-based; details: human PBMC, OKT3 antibody 6 h, read-out: IL-17 activity
Procedure: Human peripheral blood mononuclear cells were plated (2.0×10^5 cells per well) in a 96-well plate in 45 μL OpTimizer T Cell expansion media (Life Technologies) containing 20 ng/ml IL-2 and penicillin/streptomycin. The cells were treated with increasing concentrations of the test compound or DMSO (0.1%), and incubated at 37° C., 5% CO2 for 1 h before addition of 10× stock OKT3 antibody at 10 ug/ml in media. Triplicate wells were used for each concentration, Cells were incubated at 37° C., 5% CO2 for 6 h before the cells were harvested. At time of harvest, cells were pelleted by centrifugation at 800 rpm for 5 min. Cells were harvested using the mRNA Catcher PLUS kit according to manufacturer's instructions. The eluted mRNA was then used in a one-step quantitative real-time PCR reaction, using components of the RNA UltraSense™ One-Step Kit (Life Technologies) together with Applied Biosystems TaqMan® primer-probes for hIL-17 and Cyclophilin. Real-time PCR plates were run on a ViiA™ 7 real time PCR machine (Applied Biosystems), data was analyzed, normalizing the Ct values for hIL-17 to an internal control, prior to determining the fold induction of each unknown sample, relative to the control.

Row | IC50 (cMYC) | IC50 [1] | IC50 (Human AML MV-4-11 cells) | IC50 (hIL-6) | IC50 (hIL-17) | Compound | ApoA-1 activity (hApoA-I)
1 | 3000 to 30000 nM | 300 to 3000 nM | 3000 to 30000 nM | 3000 to 30000 nM |  | COc1ncc(-c2c(C)noc2C)cc1Nc1cccnc1 [Example 1, 5-(3,5-dimethylisoxazol-4-yl)-2-methoxy-N-(pyridin-3-yl)pyridin-3-amine] | ++ (EC170 value between 0.3 and 3 μM were deemed to be very active (++))
2 | 300 to 3000 nM | ≤ 300 nM | 300 to 3000 nM | 300 to 3000 nM | 300 to 3000 nM | COc1ncc(-c2c(C)noc2C)cc1NCc1ccccc1 [Example 2, N-benzyl-5-(3,5-dimethylisoxazol-4-yl)-2-methoxypyridin-3-amine] | ++ (EC170 value between 0.3 and 3 μM were deemed to be very active (++))
3 | 300 to 3000 nM | ≤ 300 nM | 300 to 3000 nM | ≤ 300 nM | 300 to 3000 nM | COc1ncc(-c2c(C)noc2C)cc1NCc1ccsc1 [Example 9, 5-(3,5-dimethylisoxazol-4-yl)-2-methoxy-N-(thiophen-3-ylmethyl)pyridin-3-amine] | ++ (EC170 value between 0.3 and 3 μM were deemed to be very active (++))
4 | 300 to 3000 nM | ≤ 300 nM | 3000 to 30000 nM | 300 to 3000 nM | 300 to 3000 nM | COc1ncc(-c2c(C)noc2C)cc1NCc1ccc(C#N)cc1 [Example 11, 4-(((5-(3,5-dimethylisoxazol-4-yl)-2-methoxypyridin-3-yl)amino)methyl)benzonitrile] | 
5 | ≤ 300 nM | ≤ 300 nM | 300 to 3000 nM | ≤ 300 nM | 300 to 3000 nM | COc1ncc(-c2c(C)noc2C)cc1Nc1c(C)noc1C [Example 43, N-(5-(3,5-dimethylisoxazol-4-yl)-2-methoxypyridin-3-yl)-3,5-dimethylisoxazol-4-amine] | 
6 | 300 to 3000 nM | ≤ 300 nM | 300 to 3000 nM | ≤ 300 nM | 300 to 3000 nM | CNc1ncc(-c2c(C)noc2C)cc1NCc1ccccc1 [Example 45, N3-benzyl-5-(3,5-dimethylisoxazol-4-yl)-N2-methylpyridine-2,3-diamine] | 
